# In ChEMBL document CHEMBL1132632, “Conformational and quantitative structure-activity relationship study of cytotoxic 2-arylidenebenzocycloalkanones” (J Med Chem, 1999):
# How the values were obtained:
# P388 [1] = test: Inhibitory activity was tested against P388 cells; assay type: functional, cell-based; conditions: Mus musculus
# CCRF-CEM [2] = test: Average potency against CEM cells; assay type: functional, Homo sapiens
# CCRF-CEM [3] = test: Inhibitory activity was tested against CEM cells; assay type: functional, cell-based; conditions: Homo sapiens
# MOLT-4 [4] = test: Average potency against Molt4/C8cells; assay type: functional, Homo sapiens
# P388 [5] = test: Average potency against P388 cells; assay type: functional, Mus musculus
# MOLT-4 [6] = test: Inhibitory activity was tested against Molt4/C8 cells; assay type: functional, cell-based; conditions: Homo sapiens
# L1210 [7] = test: Average potency against L1210 cells; assay type: functional, Mus musculus
# L1210 [8] = test: Inhibitory activity was tested against L1210 cells; assay type: functional, cell-based; conditions: Mus musculus
IC50 (P388 [1]) [µM],IC50 (CCRF-CEM [3]) [µM],IC50 (MOLT-4 [6]) [µM],IC50 (L1210 [8]) [µM],Compound,AP (CCRF-CEM [2]) [µM],AP (MOLT-4 [4]) [µM],AP (P388 [5]) [µM],AP (L1210 [7]) [µM]
> 50,> 500,> 500,> 500,O=C1/C(=C/c2ccc([N+](=O)[O-])cc2)CCc2ccccc21,115,158,20.9,135
5.3,1.65,2.11,17.5,CN(C)c1ccc(/C=C2\CCc3ccccc3C2=O)cc1,115,158,20.9,135
> 50,284,> 500,54.1,O=C1/C(=C/c2ccc(Cl)cc2)Cc2ccccc21,155,267,42.9,127
26.3,31.8,50.9,41.2,O=C1/C(=C/c2cccc(Cl)c2)Cc2ccccc21,155,267,42.9,127
> 50,41,135,61.7,CN(C)c1ccc(/C=C2\Cc3ccccc3C2=O)cc1,155,267,42.9,127
15.9,33.4,41.2,49.3,O=C1/C(=C/c2ccc(F)cc2)CCc2ccccc21,115,158,20.9,135
22.1,8.84,9.41,44,COc1ccc(/C=C2\CCc3ccccc3C2=O)cc1,115,158,20.9,135
40,39.2,46.1,181,O=C1/C(=C/c2cccc(F)c2)Cc2ccccc21,155,267,42.9,127
31.1,8.01,11.9,61.2,O=C1/C(=C/c2cccc(F)c2)CCc2ccccc21,115,158,20.9,135
11.1,20,53.6,60.3,O=C1/C(=C/c2ccc(F)cc2)CCCc2ccccc21,47,66,11.2,85.2
10.5,8.9,17.1,51,O=C1/C(=C/c2cccc(Br)c2)CCCc2ccccc21,47,66,11.2,85.2
18.6,17.1,54.7,50.9,O=C1/C(=C/c2ccc(Br)cc2)CCCc2ccccc21,47,66,11.2,85.2
> 50,299,> 500,64.8,O=C1/C(=C/c2ccc(Br)cc2)Cc2ccccc21,155,267,42.9,127
20.9,48.2,> 500,69.1,O=C1/C(=C/c2ccc(Cl)cc2)CCc2ccccc21,115,158,20.9,135
16.3,9.41,35.8,73.2,Cc1cccc(/C=C2\CCc3ccccc3C2=O)c1,115,158,20.9,135

# The remaining lines, values behind:
Compound,IC50 (P388 [1]) [µM],IC50 (CCRF-CEM [3]) [µM],IC50 (MOLT-4 [6]) [µM],IC50 (L1210 [8]) [µM],AP (CCRF-CEM [2]) [µM],AP (MOLT-4 [4]) [µM],AP (P388 [5]) [µM],AP (L1210 [7]) [µM]
COc1ccc(/C=C2\Cc3ccccc3C2=O)cc1,> 50,32.6,226,45.8,155,267,42.9,127
O=C1CCCCC/C1=C\c1ccc(Br)cc1,16.8,42.8,49.4,68.4,136,186,34.5,227
O=C1/C(=C/c2ccc(F)cc2)Cc2ccccc21,> 50,42.2,60,89,155,267,42.9,127
O=C1/C(=C/c2ccc(Br)cc2)CCc2ccccc21,20.4,> 500,> 500,202,115,158,20.9,135
O=C1/C(=C/c2ccc([N+](=O)[O-])cc2)Cc2ccccc21,> 50,> 500,> 500,> 500,155,267,42.9,127
O=C1/C(=C/c2cccc([N+](=O)[O-])c2)CCc2ccccc21,12,5.3,8.01,254,115,158,20.9,135
O=C1/C(=C/c2ccccc2)Cc2ccccc21,> 50,41.3,42.3,112,155,267,42.9,127
Cc1ccc(/C=C2\CCc3ccccc3C2=O)cc1,17.7,460,> 500,161,115,158,20.9,135
COc1cccc(/C=C2\CCc3ccccc3C2=O)c1,17.6,8.78,12.1,60.7,115,158,20.9,135
O=C1CCCCC/C1=C\c1cccc(Br)c1,24.1,137,176,246,136,186,34.5,227
Cc1cccc(/C=C2\Cc3ccccc3C2=O)c1,24.9,41.3,80.3,50.4,155,267,42.9,127
COc1cccc(/C=C2\Cc3ccccc3C2=O)c1,> 50,> 500,> 500,217,155,267,42.9,127
O=C1/C(=C/c2ccccc2)CCc2ccccc21,30.2,7.42,32.4,121,115,158,20.9,135
